Reference: patent US11324774B2, “Compositions of oral alkaline salts and metabolic acid inducers and uses thereof” (Augusta University Research Institute, Inc., priority 2018, dated 2022)

Test system: T-regulatory cells (FOXP3+ T-regs), TH17 cells
Experiment: Circulating T-regulatory and TH17 cells in rats
Format: in vivo
Conditions: rats, 4 days in drinking water

SMILES: O=C([O-])CC(O)(CC(=O)[O-])C(=O)[O-].[Na+].[Na+].[Na+] [Na Citrate]
- circulating anti-inflammatory T cells (FOXP3+ T-regs): no effect
